Publication PMC12203697, “Bioactive constituents from the edible seaweed Halymenia hawaiiana (Rhodophyta)” (Pharmaceutical Biology, 2025)
Converted amounts (≈) assume the structure as drawn. Like-named read-outs stand apart in the source and are kept apart here.

Experiments:
[1] = Ferric-reducing antioxidant power (FRAP) assay
Protocol: The FRAP assay was used to evaluate antioxidant activity based on the ability of the sample to reduce Fe^3+-TPTZ (2,4,6-tris(2-pyridyl)-S-triazine) to Fe^2+-TPTZ (Benzie and Strain [1996]). This reduction results in a color change from colorless to blue. The absorbance was measured at 593 nm using a Microplate Reader (BioTek ELx800 Instruments Inc. Winooski, Vermont, USA) with the Gen 5 software for FRAP value calculations. A ferrous sulfate heptahydrate (FeSO4 · 7H2O) (Cat. No. 215422, Sigma-Aldrich, USA) standard curve, ranging from 1000 µM to 50 µM, was prepared for the assay. The FRAP reagent consists of 300 mM sodium acetate buffer (pH 3.6) (Cat. No. 90358, Sigma-Aldrich, USA), 10 mM TPTZ solution (Cat. No. T1253, Sigma-Aldrich, USA), and 20 mM ferric (III) chloride hexahydrate (FeCl3 · 6H2O) (Cat. No. 236489, Sigma-Aldrich, USA) in a 10:1:1 ratio, respectively, and heated to 37 °C for ten minutes before use. A blank was measured at 593 nm with 150 µL FRAP reagent added to each well of a 96-well microtiter plate. Samples (20 µL of each sample) (1, 0.5, 0.25 mg/mL) and ascorbic acid (Sigma-Aldrich, Cat. No. A4403) positive control (1 mg/mL) were added in triplicates. Reducing capacity was expressed by FRAP values in an µM FeSO4/µg sample unit.

[2] = test system: LPS-induced nitric oxide (NO) production in RAW 264.7 cells; assay: Inhibition of NO generation in LPS-induced RAW 264.7 cells (Griess); assay type: cell-based, murine; details: for IC50: Mus musculus
Protocol: The nitrite concentration in the culture medium was measured to indicate nitric oxide (NO) production as previously described (Min et al. [2009]). The murine macrophage RAW 264.7 cell line was obtained from ATCC, Manassas, VA, USA, and maintained in Dulbecco’s modified Eagle’s medium supplemented with 10% heat-inactivated FBS (Cat. No. A5670801, Gibco BRL Co, Grand Island, NY, USA), penicillin G (100 units/mL) (Cat. No. P7794, Sigma-Aldrich, USA), streptomycin (100 µg/mL) (Cat. No. S9137, Sigma-Aldrich, USA), and L-glutamine (2 mM) (Cat. No. 25030081, Gibco BRL Co, Grand Island, NY, USA). In brief, RAW 264.7 cells were seeded at a density of 4 × 10^4 cells/well in phenol red-free media (Cat. No. 11835030, Gibco, USA) in a 96-well plate, and incubated in a humidified incubator with 5% CO2 at 37 °C for 24 hr. […] The concentration of nitric oxide production was assessed using the Griess reagent, which consists of a 1:1 (v/v) mixture of 1% sulfanilamide (Cat No. A13001, Alfa Aesar, Massachusetts, USA) in H3PO4 and N-(1-naphthyl)ethylenediamine dihydrochloride (Cat. No. 102397, MP Biomedicals, USA). Absorbance was recorded with a microplate reader (SynergyMx, BioTeK, Winooski, VT, USA) at 540 nm. A standard curve was created using sodium nitrite (1–100 μM) (Cat. No. 44227, Alfa Aesar, Massachusetts, USA). A sulforhodamine B (SRB) assay was employed to assess the cellular viability of the samples with RAW 264.7 cells under a similar experimental setup. The final % inhibition of NO production was adjusted based on cell viability.

[3] = test system: MRSA USA300; assay: Antibacterial MIC, broth microdilution with resazurin; assay type: cell-based; details: Staphylococcus aureus; MRSA USA300, Gram-positive; read-out: MIC
Description: (§1) Methicillin-resistant Staphylococcus aureus (MRSA), methicillin-susceptible S. aureus (MSSA), and Gram-negative clinical isolates of bacteria [Escherichia coli (9637) and Serratia marcescens ATCC 13880] were used for this study. […] MSSA HBP10, MSSA LUU7, MSSA R113, S. aureus ONE9, and MSSA POB2 were isolated in Hawaiʻi (Gerken et al. [2021]). Mueller Hinton Broth (MHB, GTIN:00382902979630, Becton, Dickinson and Company, Franklin Lakes, NJ, USA) and Mueller Hinton Agar (MHA, GTIN:00382902252504, Becton, Dickinson and Company, Franklin Lakes, NJ, USA,) were used for bacterial inoculation. MRSA was a pathogen strain causing hospital-acquired infections in 1982. This strain easily acquires resistance to antibiotics, such as vancomycin. MSSA strains isolated from the Island of Hawaiʻi included: Honolʻii Beach Park (HBP10) carry the genes erm(C), aph(3′)-III, and mecA, which provide resistance to macrolide, aminoglycoside, and beta-lactam antibiotics, respectively; Wailuku River (LUU7) which contains the blaZ gene (beta-lactam resistance) (Gerken et al. [2021]). Richardson’s Beach Park (R113) and Onekahakaha (ONE9) which is known for its virulence factors (hlgA, hlgB, hlgC, lukD, and lukE).
(§2) The minimum inhibitory concentrations (MICs) were determined using a two-fold serial dilution method with MHB following the recommendations of the Clinical and Laboratory Standards Institute (CLSI [2012]; Elshikh et al. [2016]). In brief, serial two-fold dilutions of the samples in DMSO were mixed with MHB in a 96-well microplate. Then, 50 µL of bacteria suspension was added to each well, resulting in a final concentration of 1 × 10^4 colony-forming units/well. The plates were incubated at 35–37 °C for 18–24 hr. After incubation, 10 µL of 0.18% resazurin (Cat. No. R7017, Sigma-Aldrich, USA) was added to each well (Elshikh et al. [2016]). The MIC was assessed within 2–3 hr after the addition of resazurin. All antimicrobial assays were performed in triplicate, using vancomycin (Cat. No. SBR00001, Sigma-Aldrich, USA) and gentamicin (Cat. No. G1397, Sigma-Aldrich, USA) as standard controls.

[4] = test system: E. coli; assay: as above; assay type: cell-based; details: Escherichia coli, Gram-negative
Description: as §1, §2

[5] = test system: MSSA LUU7; assay: as above; assay type: cell-based; details: Staphylococcus aureus; MSSA LUU7, Gram-positive; read-out: MIC
Description: as §1, §2

[6] = test system: S. aureus 8325-4; assay: as above; assay type: cell-based; details: Staphylococcus aureus, 83254; S. aureus 8325-4, Gram-positive; read-out: MIC
Description: as §1, §2

Structure (SMILES): Nc1ccn([C@H]2C[C@H](O)[C@@H](CO)O2)c(=O)n1 [Compound 1, deoxycytidine]
- FRAP ([1]; µM FeSO4/µg sample): 0.41 ± 0.03 µM/µg
- NO inhibitory activity (in words) ([2]; RAW 264.7 cells, LPS-induced, highest concentration 50 μg/mL): no significant NO inhibitory activity
- MIC [3]: 128 µg/mL (≈ 563 µM)
- MIC [4]: 128 µg/mL (≈ 563 µM)
- MIC [5]: 128 µg/mL (≈ 563 µM)
- MIC [6]: 128 µg/mL (≈ 563 µM)

Structure (SMILES): CC(C)CCC[C@@H](C)[C@H]1CC[C@H]2[C@@H]3CC=C4C[C@@H](O)CC[C@]4(C)[C@H]3CC[C@]12C [Compound 9, cholesterol]
- IC50 ([2]; RAW264.7, RAW 264.7 cells, LPS 1 μg/mL, adjusted for cell viability, read-out: IC50, inhibition of LPS-induced NO production): 50.2 ± 2.2 µM
- inhibition of NO production at 5 µg/ml (in words) ([2]; RAW 264.7 cells, LPS-induced): significant (p > 0.001) inhibition
- MIC [3]: 128 µg/mL (≈ 331 µM)
- MIC [4]: 128 µg/mL (≈ 331 µM)
- MIC [5]: 128 µg/mL (≈ 331 µM)
- MIC [6]: 128 µg/mL (≈ 331 µM)

Structure (SMILES): CC(C)CCC[C@@H](C)[C@H]1CCC2[C@@]34C=C[C@]5(C[C@@H](O)CC[C@]5(C)C3CC[C@@]21C)OO4 (stereo partly drawn) [Compound 10, 7-dehydrochoresterol peroxide]
- FRAP ([1]; FeSO4 standard curve): 204.07 µM
- FRAP ([1]; µM FeSO4/µg sample): 2.55 ± 0.02 µM/µg
- IC50 ([2]; RAW264.7, read-out: IC50, inhibition of LPS-induced NO production): 53.6 ± 2.3 µM
- inhibition of NO production at 5 µg/ml (in words) ([2]; RAW 264.7 cells, LPS-induced): significant (p > 0.001) inhibition
- MIC [3]: 128 µg/mL (≈ 307 µM)
- MIC [4]: 128 µg/mL (≈ 307 µM)
- MIC [5]: 128 µg/mL (≈ 307 µM)
- MIC [6]: 128 µg/mL (≈ 307 µM)

Structure (SMILES): CC(C)CCC[C@@H](C)[C@H]1CCC2[C@]1(C)CC=C1[C@]23C=C[C@]2(C[C@@H](O)CC[C@]12C)OO3 (stereo partly drawn) [Compound 11, (3β-5α-8α)5,8-epidioxycholesta-6,9(1)-diene-3-ol]
- MIC [3]: 128 µg/mL (≈ 309 µM)
- MIC [4]: 128 µg/mL (≈ 309 µM)
- MIC [5]: 128 µg/mL (≈ 309 µM)
- MIC [6]: 128 µg/mL (≈ 309 µM)
